In brackets after ≈: the same amount, converted by molar mass.
What was measured:
[1] = Inhibition of acetylcholine esterase (unknown origin) using acetylthiocholine as substrate incubated for 15 mins prior to substrate addition measured after 5 mins by spectrophotometry; design: species or system Homo sapiens
[2] = system: Radical scavenging activity; assay: Antioxidant activity of the compound assessed as DPPH radical scavenging activity after 30 mins by spectrophotometry; type: functional
[3] = Inhibition of urease (unknown origin) assessed as ammonia synthesis after 30 mins by microplate reader analysis; design: species or system Homo sapiens
[4] = molecular target: Intestinal-type alkaline phosphatase (Bos taurus, UniProt P19111); assay: Inhibition of calf intestinal alkaline phosphatase using p-NPP as substrate incubated for 10 mins prior to substrate addition measured after 30 mins by spectrophotometry
Intestinal-type alkaline phosphatase, sequence (P19111 whole entry): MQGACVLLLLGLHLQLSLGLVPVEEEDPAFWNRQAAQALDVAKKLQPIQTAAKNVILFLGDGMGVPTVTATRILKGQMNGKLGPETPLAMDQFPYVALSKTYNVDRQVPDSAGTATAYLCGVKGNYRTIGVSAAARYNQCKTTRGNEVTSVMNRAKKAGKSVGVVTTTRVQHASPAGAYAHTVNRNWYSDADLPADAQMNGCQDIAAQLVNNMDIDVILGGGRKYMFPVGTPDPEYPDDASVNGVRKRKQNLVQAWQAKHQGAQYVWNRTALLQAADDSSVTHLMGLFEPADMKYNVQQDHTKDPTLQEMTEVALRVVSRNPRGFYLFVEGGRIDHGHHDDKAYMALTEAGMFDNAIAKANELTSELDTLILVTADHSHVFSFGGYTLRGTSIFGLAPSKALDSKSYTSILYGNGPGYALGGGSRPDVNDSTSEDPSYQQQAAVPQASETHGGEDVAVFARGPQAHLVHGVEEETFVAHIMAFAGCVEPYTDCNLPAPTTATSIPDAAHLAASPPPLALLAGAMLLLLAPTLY

Shigella flexneri = assay: Antibacterial activity against Shigella flexneri after 24 hrs by serial tube dilution method; type: functional
Bacillus subtilis = assay: Antibacterial activity against Bacillus subtilis after 24 hrs by serial tube dilution method; type: functional
Staphylococcus aureus = assay: Antibacterial activity against Staphylococcus aureus after 24 hrs by serial tube dilution method; type: functional
Escherichia coli = assay: Antibacterial activity against Escherichia coli after 24 hrs by serial tube dilution method; type: functional

SMILES	IC50 [1]	also measured
Fc1cccc(Cc2nnc3sc(-c4ccoc4)nn23)c1	1780 nM	IC50 [2]: 31500 nM
COc1ccc(-c2nnc3sc(-c4ccoc4)nn23)cc1	1780 nM	IC50 [3]: 764 nM; Ki [3]: 450 nM
Brc1ccc(-c2nnc3sc(-c4ccoc4)nn23)cc1	1780 nM	IC50 [4]: 61 nM
Brc1cccc(-c2nnc3sc(-c4ccoc4)nn23)c1	344 nM	
Fc1cnc(-c2nn3c(-c4ccccc4Cl)nnc3s2)c(F)c1		MIC (Shigella flexneri): 0.156 µg/mL (≈ 0.446 µM); MIC (Bacillus subtilis): 0.156 µg/mL (≈ 0.446 µM); MIC (Staphylococcus aureus): 0.156 µg/mL (≈ 0.446 µM); MIC (Escherichia coli): 0.156 µg/mL (≈ 0.446 µM)
Clc1ccccc1-c1nnc2sc(-c3ccoc3)nn12	1780 nM	
Clc1ccc(-c2nnc3sc(-c4ccoc4)nn23)cc1	1780 nM	
Fc1ccccc1Cc1nnc2sc(-c3ccoc3)nn12	1780 nM	
Fc1ccc(Cc2nnc3sc(-c4ccoc4)nn23)cc1	1780 nM	
COc1ccccc1-c1nnc2sc(-c3ccoc3)nn12	1780 nM	
COc1cccc(-c2nnc3sc(-c4ccoc4)nn23)c1	1780 nM	
COc1cccc(Cc2nnc3sc(-c4ccc(Cl)cc4)nn23)c1		IC50 [2]: 9040 nM
CCCOC(=O)c1cc(O)c(O)c(O)c1 [PROPYL GALLATE]		IC50 [2]: 40800 nM
